The values below are quoted from earlier work in US6653352B2, “Pain reliever and method of use” (Medical Merchandising, Inc., priority 1999, dated 2003).

For the data set the following is noted: in fats, oils and alcohols.

With `COc1cc(CNC(=O)CCCC/C=C/C(C)C)ccc1O` [Capsaicin, N-Vanillyl-8-methyl-6-(E)-noneamide], the solubility result was “very soluble in fats, oils and alcohols”.
